Here are results for three molecules from ChEMBL document CHEMBL1149587 (2007).

Each structure is given as a SMILES string.

Holding throughout (type): functional
Test [1] relates to Rattus norvegicus. Nature of the test: Elimination of D-xylose from 15 days old Sprague-Dawley suckling rat urine at 4 mg, po.
Test [2] concerns Rattus norvegicus. Nature of the test: Elimination of D-xylose from 30 days old Sprague-Dawley suckling rat urine at 4 mg, po.
The test system of test [3] is Rattus norvegicus. Briefly: Elimination of D-xylose from 18 days old Sprague-Dawley suckling rat urine at 4 mg, po.

For the molecule `OC[C@H]1O[C@@H](O[C@H]2C(O)OC[C@@H](O)[C@@H]2O)[C@H](O)[C@@H](O)[C@H]1O` (some centres undefined), the Activity with Rattus norvegicus [1] was found to be 23.1%; in the test on Rattus norvegicus [2], 9.43%; in the test on Rattus norvegicus [3], 20.71%.
For `OC[C@H]1O[C@@H](O[C@@H]2COC(O)[C@H](O)[C@H]2O)[C@H](O)[C@@H](O)[C@H]1O` (some centres undefined), the Activity stood at 23.66% in the test with Rattus norvegicus [1], 3.05% in the test with Rattus norvegicus [2] and 6.99% with Rattus norvegicus [3].
For the molecule `OC[C@H]1O[C@@H](O[C@H]2[C@H](O)COC(O)[C@@H]2O)[C@H](O)[C@@H](O)[C@H]1O` (some centres undefined), the values for the Activity in the test on Rattus norvegicus [1], in the test with Rattus norvegicus [2] and in the test on Rattus norvegicus [3] were 23.3%, 19.39% and 20.63%, respectively.
